Reference: patent publication USRE46511E1, “Fused pyrimidine derivatives for inhibition of tyrosine kinase activity” (HANMI SCIENCE CO., LTD., priority 2010, dated 2017)

What was measured:
RLK = target: T1, RLK (Homo sapiens, UniProt P42681); test: z-lyte kinase assay, RLK; type: biochemical
T1 construct: purchased Invitrogen
T1 sequence (P42681 1-527): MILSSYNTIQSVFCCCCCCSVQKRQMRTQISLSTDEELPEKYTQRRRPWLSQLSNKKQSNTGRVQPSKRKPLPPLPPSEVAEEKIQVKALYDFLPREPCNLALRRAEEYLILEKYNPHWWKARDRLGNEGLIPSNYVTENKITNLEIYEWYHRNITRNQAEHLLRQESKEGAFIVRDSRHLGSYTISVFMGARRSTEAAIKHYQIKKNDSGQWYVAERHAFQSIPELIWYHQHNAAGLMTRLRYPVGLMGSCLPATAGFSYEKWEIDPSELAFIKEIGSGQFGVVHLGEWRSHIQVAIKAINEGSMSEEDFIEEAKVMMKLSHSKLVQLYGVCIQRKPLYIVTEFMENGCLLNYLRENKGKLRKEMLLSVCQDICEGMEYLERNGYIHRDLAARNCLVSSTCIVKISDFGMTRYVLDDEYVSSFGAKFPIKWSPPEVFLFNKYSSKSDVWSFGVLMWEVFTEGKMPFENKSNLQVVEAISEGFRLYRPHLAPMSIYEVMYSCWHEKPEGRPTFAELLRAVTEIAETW

[1] = test system: NCI-H1975 (EGFR L858R/T790M); test: Inhibition test for growth of cancer cell expressing EGFR (MTS), NCI-H1975; type: cell-based; details: Homo sapiens; NCI-H1975 cells, 48 hours, MTS; read-out: GI50 NCI-H1975 EGFR L858R/T790M
JAK3 = target: T2, JAK3 (Homo sapiens, UniProt P52333); test: z-lyte kinase assay, JAK3; type: biochemical
T2 construct: purchased Invitrogen
T2 sequence (P52333 1-1124): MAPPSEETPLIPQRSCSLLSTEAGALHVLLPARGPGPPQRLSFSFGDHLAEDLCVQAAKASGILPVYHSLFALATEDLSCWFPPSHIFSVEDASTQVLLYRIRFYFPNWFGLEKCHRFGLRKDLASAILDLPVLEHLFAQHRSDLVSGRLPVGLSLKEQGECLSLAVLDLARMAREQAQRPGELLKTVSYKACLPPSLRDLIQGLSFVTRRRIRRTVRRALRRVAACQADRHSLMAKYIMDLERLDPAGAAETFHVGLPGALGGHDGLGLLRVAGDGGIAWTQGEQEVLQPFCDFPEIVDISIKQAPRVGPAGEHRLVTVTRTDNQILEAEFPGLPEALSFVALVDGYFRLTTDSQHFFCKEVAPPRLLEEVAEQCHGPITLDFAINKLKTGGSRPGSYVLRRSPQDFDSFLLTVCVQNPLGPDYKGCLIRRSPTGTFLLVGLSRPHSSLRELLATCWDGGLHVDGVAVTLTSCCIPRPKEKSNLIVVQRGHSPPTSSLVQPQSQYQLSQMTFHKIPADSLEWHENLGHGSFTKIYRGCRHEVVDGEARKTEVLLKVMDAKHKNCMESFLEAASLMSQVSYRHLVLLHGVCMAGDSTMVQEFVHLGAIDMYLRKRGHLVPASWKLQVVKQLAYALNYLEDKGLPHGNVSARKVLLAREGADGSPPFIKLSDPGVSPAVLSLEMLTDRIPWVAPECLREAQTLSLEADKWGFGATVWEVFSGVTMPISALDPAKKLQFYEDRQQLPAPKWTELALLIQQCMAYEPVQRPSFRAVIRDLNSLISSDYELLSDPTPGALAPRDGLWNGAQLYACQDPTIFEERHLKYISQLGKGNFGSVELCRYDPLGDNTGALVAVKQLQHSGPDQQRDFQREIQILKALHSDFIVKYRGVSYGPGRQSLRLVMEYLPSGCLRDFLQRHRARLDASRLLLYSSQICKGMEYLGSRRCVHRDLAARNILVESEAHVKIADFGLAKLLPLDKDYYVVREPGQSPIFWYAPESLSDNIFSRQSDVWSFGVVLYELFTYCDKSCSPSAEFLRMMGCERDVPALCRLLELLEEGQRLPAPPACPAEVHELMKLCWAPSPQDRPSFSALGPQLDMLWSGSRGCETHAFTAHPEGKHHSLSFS
Summary of the method: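 Each kinase was mixed with peptide substrate, compound (dilution series made at 1–0.0001 μM in 4% DMSO) and ATP added from a 5~300 μM solution, then incubated 60 min at RT. After development reagent and stop solution, fluorescence was read at 400 nm excitation/520 nm emission and IC50 calculated.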

[2] = test system: HCC827 (EGFR DelE746_A750); test: Inhibition test for growth of cancer cell expressing EGFR (SRB), HCC827; type: cell-based; details: Homo sapiens, HCC827, 72 h, HCC827 cells, 72 hours, SRB; read-out: GI50 HCC827 EGFR DelE746_A750;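 note: cells in 96-well plates exposed to tenfold serial dilutions from 100 µM, fixed with trichloroacetic acid, SRB-stained, absorbance read at 540 nm, DMSO under 1%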

IC50 (RLK): ≤ 50 nM | GI50 [1]: < 50 nM | IC50 (JAK3): ≤ 50 nM | GI50 [2]: < 50 nM
SMILES: C=CC(=O)Nc1cccc(Oc2nc(Nc3ccc(N4CCN(C)CC4)cc3)nc3ccsc23)c1 [Example 1, N-(3-(2-(4-(4-methylpiperazin-1-yl)phenylamino)thieno[3,2-d]pyrimidine-4-yloxy)phenyl)acrylamide]
